Assay results taken from ChEMBL document CHEMBL4673260, “Pyridine alkaloids with activity in the central nervous system” (Bioorg Med Chem, 2020).

Tests used:
Acetylcholinesterase [1] = molecular target: T1, Acetylcholinesterase (Homo sapiens, UniProt P22303)
Mus musculus = species on record: Mus musculus; experiment: animal or person
Description: Antinociceptive activity in naloxone treated mouse assessed as induction of Straub-tail response

[2] = molecular target: Acetylcholinesterase (Electrophorus electricus) (UniProt O42275); experiment: Inhibition of electric eel acetylcholinesterase using acetylthiocholine iodide as substrate by Ellman's method relative to control; details: concentration not given here
[3] = Neurotoxicity in ip dosed mouse assessed as induction of epileptic convulsion; type: toxicity, organism-based; details: in vivo
[4] = Neurotoxicity in ip dosed mouse assessed as mouse death; type: toxicity, organism-based; details: in vivo
[5] = Neurotoxicity in ip dosed mouse assessed as induction of hindlimb tonic extension; type: toxicity, organism-based; details: in vivo
[6] = molecular target: T2, Neuronal acetylcholine receptor; alpha4/beta2 (Rattus norvegicus) (UniProt P09483+P12390); experiment: Agonist activity at rat alpha4beta2 expressed in Xenopus oocytes assessed as peak activation at 100 uM relative to control; type: cell-based; details: Oocyte, filed as agonist
[7] = molecular target: T3, Muscarinic acetylcholine receptor M1 (Rattus norvegicus) (UniProt P08482); details: filed as antagonist, time 60.0 min
T3 sequence (whole entry): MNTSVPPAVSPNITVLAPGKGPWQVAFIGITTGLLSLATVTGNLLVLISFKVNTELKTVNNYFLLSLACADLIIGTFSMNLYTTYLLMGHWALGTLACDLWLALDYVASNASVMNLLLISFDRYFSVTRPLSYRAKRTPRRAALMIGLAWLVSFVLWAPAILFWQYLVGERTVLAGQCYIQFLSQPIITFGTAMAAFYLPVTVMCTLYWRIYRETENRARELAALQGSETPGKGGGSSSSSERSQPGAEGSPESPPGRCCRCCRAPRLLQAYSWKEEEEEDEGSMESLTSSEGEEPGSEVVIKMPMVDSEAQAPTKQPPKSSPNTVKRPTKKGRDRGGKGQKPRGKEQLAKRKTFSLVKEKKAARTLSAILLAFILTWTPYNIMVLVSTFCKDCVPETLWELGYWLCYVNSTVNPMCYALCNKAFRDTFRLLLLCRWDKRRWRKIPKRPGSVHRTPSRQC

[8] = molecular target: T3, Muscarinic acetylcholine receptor M1 (Rattus norvegicus); details: filed as antagonist, time 40.0 min
[9] = molecular target: Neuronal acetylcholine receptor; alpha3/beta4 (Homo sapiens) (UniProt P30926+P32297); experiment: Agonist activity at human alpha3beta4 nAChR expressed in mouse/rat hybrid F11 cells assessed as increase in rubidium-86 efflux; type: cell-based; details: filed as agonist
[10] = molecular target: T4, Neuronal acetylcholine receptor; alpha4/beta2 (Homo sapiens, UniProt P17787+P43681); experiment: Agonist activity at human brain alpha4beta2 nAChR expressed in CHO cells assessed as maximal receptor response by patch clamp electrophysiological assay relative to control; type: cell-based; details: filed as agonist
[11] = molecular target: T2, Neuronal acetylcholine receptor; alpha4/beta2 (Rattus norvegicus); experiment: Agonist activity at alpha4beta2 nAChR in rat thalamic synaptosomes assessed as 86Rb efflux relative to tetramethylammonium; type: subcellular; details: Thalamus, filed as agonist
Torpedo = experiment: Agonist activity at Torpedo alpha1beta1deltagamma nACHR; details: filed as agonist
Rattus norvegicus = species on record: Rattus norvegicus; experiment: Agonist activity at nAChR in rat striatal synaptosomes assessed as [3H]dopamine release relative to tetramethylammonium; type: subcellular; details: Striatum, filed as agonist
[12] = molecular target: Neuronal acetylcholine receptor subunit alpha-7 (Homo sapiens, UniProt P36544); details: filed as agonist
Description: Agonist activity at human alpha7 nAChR (unknown origin)

[13] = Induction of neurotoxicity in cray fish measured after 24 hrs; details: procambarus clarkii
[14] = molecular target: T4, Neuronal acetylcholine receptor; alpha4/beta2
Description: Displacement of [3H]cytisine from human alpha4beta2 nAChR by Cheng-Prusoff equation analysis

[15] = molecular target: T4, Neuronal acetylcholine receptor; alpha4/beta2; remark: listed apart in the source
Description: Displacement of [3H]cytisine from human alpha4beta2 nAChR by radioligand competition analysis

Acetylcholinesterase [16] = molecular target: T1, Acetylcholinesterase; experiment: Inhibition of acetylcholinesterase (unknown origin) using acetylthiocholine iodide as substrate incubated for 30 mins by Ellman's coupled enzyme assay
[17] = molecular target: T5, Muscarinic acetylcholine receptor M2 (Rattus norvegicus, UniProt P10980); experiment: Inhibition of [3H]-methyl-quinuclidinyl benzilate binding to rat heart muscarinic M2 receptor by radioligand binding assay
T5 sequence (P10980 whole entry): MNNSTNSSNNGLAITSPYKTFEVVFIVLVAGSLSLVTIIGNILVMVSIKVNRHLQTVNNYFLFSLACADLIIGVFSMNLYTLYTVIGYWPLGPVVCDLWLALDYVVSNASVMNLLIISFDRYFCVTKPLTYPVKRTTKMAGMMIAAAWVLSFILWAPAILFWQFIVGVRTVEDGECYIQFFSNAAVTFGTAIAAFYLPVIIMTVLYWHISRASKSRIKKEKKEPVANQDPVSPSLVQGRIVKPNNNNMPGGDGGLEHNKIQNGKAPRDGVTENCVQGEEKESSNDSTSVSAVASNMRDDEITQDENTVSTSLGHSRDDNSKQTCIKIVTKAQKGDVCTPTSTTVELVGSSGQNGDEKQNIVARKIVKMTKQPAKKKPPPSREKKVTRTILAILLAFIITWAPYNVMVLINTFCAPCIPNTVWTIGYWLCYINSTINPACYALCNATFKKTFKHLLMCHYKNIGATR

[18] = molecular target: T6, Muscarinic acetylcholine receptor M1 (Rattus norvegicus, UniProt P08482); experiment: Inhibition of [3H]-methyl-quinuclidinyl benzilate binding to rat brain muscarinic M1 receptor by radioligand binding assay
T6 sequence (P08482 whole entry): T3 sequence (whole entry)

[19] = molecular target: Muscarinic acetylcholine receptor M3 (Rattus norvegicus, UniProt P08483); experiment: Inhibition of [3H]-methyl-quinuclidinyl benzilate binding to rat salivary gland muscarinic M3 receptor by radioligand binding assay
[20] = molecular target: Neuronal acetylcholine receptor; alpha4/beta2 (Rattus norvegicus, UniProt P09483+P12390); experiment: Displacement of [3H]-cytisine from rat brain membrane alpha4beta2 nAChR; type: cell membranes
[21] = molecular target: T4, Neuronal acetylcholine receptor; alpha4/beta2; experiment: Agonist activity at human alpha4beta2 nAChR expressed in Xenopus oocytes; type: cell-based, Oocyte
[22] = molecular target: T4, Neuronal acetylcholine receptor; alpha4/beta2; experiment: Agonist activity at human alpha4beta2 nAChR expressed in Xenopus oocytes relative to control; type: cell-based; details: Oocyte, filed as agonist
[23] = molecular target: T7, Neuronal acetylcholine receptor subunit alpha-7 (Rattus norvegicus, UniProt Q05941)
Description: Displacement of [3H]MLA from rat alpha7 nAChR by liquid scintillation counting

[24] = molecular target: T7, Neuronal acetylcholine receptor subunit alpha-7; experiment: Displacement of 125I-alpha-bungarotoxin from rat brain alpha7 nAChR by radioligand binding assay
[25] = Toxicity in iv dosed Swiss-Webster mouse by up-and-down method; type: organism-based; details: in vivo
[26] = molecular target: T8, Dopamine beta-hydroxylase (Bos taurus) (UniProt P15101); experiment: Inhibition of bovine adrenal medulla DBH at 5 uM relative to control
T8 sequence (whole entry): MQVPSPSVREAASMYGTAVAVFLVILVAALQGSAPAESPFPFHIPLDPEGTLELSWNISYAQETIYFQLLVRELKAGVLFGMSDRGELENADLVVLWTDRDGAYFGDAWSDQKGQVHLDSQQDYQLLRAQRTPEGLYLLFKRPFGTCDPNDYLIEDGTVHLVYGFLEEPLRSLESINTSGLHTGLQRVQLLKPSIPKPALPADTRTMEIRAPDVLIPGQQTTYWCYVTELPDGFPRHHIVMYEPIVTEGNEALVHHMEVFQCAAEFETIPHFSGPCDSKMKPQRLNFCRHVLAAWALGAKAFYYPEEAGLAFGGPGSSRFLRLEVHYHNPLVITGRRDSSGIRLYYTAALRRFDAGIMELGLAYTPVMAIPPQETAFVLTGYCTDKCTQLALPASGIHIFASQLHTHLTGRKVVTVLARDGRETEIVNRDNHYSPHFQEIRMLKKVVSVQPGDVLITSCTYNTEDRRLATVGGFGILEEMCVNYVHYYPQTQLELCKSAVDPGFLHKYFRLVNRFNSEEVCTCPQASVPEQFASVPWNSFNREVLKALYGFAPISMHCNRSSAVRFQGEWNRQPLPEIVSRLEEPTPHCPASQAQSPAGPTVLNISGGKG

[27] = molecular target: T8, Dopamine beta-hydroxylase (Bos taurus); experiment: Inhibition of bovine adrenal medulla DBH at 0.5 uM relative to control
[28] = Displacement of [3H]-(-)-nicotine from rat cerebral cortex nAChR incubated for 60 mins by liquid scintillation spectrometry

Chain of Muscarinic acetylcholine receptor M3 (P08483 whole entry): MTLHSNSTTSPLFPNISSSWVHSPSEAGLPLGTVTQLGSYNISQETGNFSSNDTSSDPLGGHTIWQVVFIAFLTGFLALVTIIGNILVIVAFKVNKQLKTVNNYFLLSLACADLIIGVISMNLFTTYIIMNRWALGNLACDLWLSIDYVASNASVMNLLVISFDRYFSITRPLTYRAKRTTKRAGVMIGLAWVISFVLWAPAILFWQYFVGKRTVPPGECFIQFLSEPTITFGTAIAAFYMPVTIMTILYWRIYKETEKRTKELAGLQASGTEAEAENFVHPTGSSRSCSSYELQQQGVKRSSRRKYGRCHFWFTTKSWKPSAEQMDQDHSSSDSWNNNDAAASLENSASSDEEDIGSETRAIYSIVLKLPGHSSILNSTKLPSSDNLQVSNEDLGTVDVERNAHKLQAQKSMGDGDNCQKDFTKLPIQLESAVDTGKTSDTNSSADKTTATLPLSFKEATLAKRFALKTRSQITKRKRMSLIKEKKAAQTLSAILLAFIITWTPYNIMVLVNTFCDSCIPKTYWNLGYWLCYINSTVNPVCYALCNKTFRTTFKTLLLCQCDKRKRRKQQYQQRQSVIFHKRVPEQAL
T1 sequence (P22303 whole entry): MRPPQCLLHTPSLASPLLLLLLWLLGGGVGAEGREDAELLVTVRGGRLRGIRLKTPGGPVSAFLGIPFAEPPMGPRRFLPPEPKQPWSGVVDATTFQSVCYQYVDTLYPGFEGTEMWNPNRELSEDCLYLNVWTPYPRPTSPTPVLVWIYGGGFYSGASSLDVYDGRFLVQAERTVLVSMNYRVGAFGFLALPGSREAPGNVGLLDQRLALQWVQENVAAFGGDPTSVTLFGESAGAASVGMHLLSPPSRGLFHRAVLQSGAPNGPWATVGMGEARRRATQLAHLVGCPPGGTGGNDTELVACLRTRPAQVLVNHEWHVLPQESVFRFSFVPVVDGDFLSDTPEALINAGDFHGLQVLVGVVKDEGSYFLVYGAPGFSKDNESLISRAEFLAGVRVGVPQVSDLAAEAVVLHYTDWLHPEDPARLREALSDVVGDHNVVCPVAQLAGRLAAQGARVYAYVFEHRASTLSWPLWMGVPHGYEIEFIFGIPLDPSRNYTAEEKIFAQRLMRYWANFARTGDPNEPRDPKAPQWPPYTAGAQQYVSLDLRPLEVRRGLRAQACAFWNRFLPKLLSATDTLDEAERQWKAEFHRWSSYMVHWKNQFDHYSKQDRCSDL
T4 sequence (P17787 whole entry): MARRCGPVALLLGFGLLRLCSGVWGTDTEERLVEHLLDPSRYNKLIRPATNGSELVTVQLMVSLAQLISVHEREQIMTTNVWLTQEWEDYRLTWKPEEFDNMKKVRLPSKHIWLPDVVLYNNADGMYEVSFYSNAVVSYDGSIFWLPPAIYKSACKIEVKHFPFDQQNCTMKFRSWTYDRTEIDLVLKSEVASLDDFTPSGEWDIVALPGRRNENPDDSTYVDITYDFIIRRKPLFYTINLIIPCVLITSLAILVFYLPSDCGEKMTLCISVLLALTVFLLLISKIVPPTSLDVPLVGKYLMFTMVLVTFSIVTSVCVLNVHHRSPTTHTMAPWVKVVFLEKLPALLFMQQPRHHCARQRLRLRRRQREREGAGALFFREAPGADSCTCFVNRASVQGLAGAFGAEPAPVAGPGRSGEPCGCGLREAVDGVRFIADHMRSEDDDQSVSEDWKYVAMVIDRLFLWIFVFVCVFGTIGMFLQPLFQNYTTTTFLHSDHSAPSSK
T4 sequence (P43681 whole entry): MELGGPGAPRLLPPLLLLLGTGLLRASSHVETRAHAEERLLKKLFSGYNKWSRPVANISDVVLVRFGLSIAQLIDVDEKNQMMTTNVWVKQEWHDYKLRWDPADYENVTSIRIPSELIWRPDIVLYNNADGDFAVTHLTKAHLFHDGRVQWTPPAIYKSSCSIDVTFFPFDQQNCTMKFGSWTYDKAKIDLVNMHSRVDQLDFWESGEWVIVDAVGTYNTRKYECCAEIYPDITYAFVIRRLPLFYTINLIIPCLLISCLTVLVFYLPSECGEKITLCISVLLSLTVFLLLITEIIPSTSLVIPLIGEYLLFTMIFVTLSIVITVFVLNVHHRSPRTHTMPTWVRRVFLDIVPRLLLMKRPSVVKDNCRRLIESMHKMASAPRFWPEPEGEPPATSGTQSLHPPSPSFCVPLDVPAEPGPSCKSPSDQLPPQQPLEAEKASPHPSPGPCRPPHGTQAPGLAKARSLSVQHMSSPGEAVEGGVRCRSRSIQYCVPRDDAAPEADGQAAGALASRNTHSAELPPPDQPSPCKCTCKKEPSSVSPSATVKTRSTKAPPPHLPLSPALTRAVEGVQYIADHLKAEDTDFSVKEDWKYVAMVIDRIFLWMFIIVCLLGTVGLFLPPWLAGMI
Chain of Neuronal acetylcholine receptor; alpha4/beta2 (Rattus norvegicus, UniProt P09483+P12390) (P09483 whole entry): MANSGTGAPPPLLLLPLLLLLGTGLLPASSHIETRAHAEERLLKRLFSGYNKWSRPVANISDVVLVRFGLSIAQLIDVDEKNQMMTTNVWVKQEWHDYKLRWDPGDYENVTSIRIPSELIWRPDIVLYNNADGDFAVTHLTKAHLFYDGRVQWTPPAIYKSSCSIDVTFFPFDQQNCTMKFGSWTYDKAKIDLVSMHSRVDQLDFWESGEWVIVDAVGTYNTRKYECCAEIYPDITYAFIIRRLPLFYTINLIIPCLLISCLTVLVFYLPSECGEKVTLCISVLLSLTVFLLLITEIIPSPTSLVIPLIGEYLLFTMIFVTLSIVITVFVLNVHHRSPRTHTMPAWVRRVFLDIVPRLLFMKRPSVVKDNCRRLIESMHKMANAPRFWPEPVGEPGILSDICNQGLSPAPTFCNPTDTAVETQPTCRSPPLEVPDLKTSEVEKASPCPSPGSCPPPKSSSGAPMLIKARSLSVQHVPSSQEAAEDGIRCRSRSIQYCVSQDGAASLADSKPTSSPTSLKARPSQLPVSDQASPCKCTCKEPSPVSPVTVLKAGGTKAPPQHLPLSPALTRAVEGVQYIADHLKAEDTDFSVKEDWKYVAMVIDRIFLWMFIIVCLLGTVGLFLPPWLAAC
Chain of Neuronal acetylcholine receptor; alpha4/beta2 (Rattus norvegicus, UniProt P09483+P12390) (P12390 whole entry): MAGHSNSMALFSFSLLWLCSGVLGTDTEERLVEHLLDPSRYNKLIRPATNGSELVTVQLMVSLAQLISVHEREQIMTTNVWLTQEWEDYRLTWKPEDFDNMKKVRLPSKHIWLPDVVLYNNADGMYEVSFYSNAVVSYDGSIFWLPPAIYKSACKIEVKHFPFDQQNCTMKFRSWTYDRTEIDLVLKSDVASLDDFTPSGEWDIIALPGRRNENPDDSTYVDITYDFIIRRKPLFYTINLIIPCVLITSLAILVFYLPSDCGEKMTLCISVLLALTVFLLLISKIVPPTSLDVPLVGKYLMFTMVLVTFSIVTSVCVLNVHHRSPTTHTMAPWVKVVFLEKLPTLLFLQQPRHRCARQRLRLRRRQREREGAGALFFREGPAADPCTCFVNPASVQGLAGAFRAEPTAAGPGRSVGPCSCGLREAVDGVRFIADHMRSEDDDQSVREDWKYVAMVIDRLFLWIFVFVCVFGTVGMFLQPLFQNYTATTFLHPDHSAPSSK
T7 sequence (Q05941 whole entry): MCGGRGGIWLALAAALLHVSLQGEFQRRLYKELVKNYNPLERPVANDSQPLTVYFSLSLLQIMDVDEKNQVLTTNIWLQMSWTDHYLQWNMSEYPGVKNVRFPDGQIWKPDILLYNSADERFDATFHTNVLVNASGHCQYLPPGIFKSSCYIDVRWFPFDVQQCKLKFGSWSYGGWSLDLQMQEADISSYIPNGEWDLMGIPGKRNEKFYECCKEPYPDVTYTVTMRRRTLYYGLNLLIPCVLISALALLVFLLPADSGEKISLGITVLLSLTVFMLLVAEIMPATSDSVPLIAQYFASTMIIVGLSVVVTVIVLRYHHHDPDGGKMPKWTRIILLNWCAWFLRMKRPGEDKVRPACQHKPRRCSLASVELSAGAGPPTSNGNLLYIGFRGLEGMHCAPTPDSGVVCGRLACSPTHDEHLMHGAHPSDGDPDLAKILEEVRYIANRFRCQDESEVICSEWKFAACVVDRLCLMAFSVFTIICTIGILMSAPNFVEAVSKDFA
Chain of Acetylcholinesterase (Electrophorus electricus) (O42275 24-633 limits assumed): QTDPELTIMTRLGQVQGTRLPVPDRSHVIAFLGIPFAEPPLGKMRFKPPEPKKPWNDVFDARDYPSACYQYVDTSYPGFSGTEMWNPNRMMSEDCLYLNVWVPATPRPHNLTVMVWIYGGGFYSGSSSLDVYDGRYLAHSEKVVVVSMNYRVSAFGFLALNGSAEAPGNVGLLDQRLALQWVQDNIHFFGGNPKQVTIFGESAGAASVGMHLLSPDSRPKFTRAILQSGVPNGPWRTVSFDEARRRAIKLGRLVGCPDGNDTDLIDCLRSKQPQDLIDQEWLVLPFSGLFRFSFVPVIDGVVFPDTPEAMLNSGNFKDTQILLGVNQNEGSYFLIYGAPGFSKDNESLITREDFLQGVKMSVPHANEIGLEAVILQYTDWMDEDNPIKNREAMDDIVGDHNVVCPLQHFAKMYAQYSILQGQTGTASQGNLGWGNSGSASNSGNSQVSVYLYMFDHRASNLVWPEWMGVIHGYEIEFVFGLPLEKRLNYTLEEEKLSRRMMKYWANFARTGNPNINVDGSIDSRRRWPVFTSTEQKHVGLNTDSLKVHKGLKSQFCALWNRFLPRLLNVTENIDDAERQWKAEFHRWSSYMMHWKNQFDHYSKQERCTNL

CCCCCCCCCCCCCCCCc1ccc(C(=O)[O-])c[n+]1C
IC50 (Acetylcholinesterase [1]): 2800 µM

CN1CC[C@]23c4c5ccc(O)c4O[C@H]2[C@@H](O)C=C[C@H]3[C@H]1C5 [MORPHINE]
ED50 (Mus musculus): 10 mg/kg

O=C(O)[C@H]1CCCC[C@@H]1c1c[nH]c(=O)cc1O
inhibition [2]: 57.5%

O=C(O)C[C@@H]1[C@@H](C(=O)O)NC[C@@H]1c1ccc(=O)[nH]c1
LD [3]: 10 mg/kg | LD [4]: 10 mg/kg | LD [5]: 10 mg/kg

CC(=O)OCC[N+](C)(C)C
Activity [6]: 242%

Clc1ccc(C2CC3CCC2N3)cn1 (stereo in doubt; (-))
Kapp [7]: 16 µM | Kapp [8]: 1.4 µM

CN1CCC[C@H]1c1cccnc1
ED50 [9]: 14 µM | Imax [10]: 159% | Emax [11]: 87% | ED50 (Torpedo): 250 µM | Emax (Rattus norvegicus): 113% | Activity [6]: 333% | ED50 [12]: 40 µM

c1ccc(-c2cccnc2)nc1 [[2,3'']Bipyridinyl]
LD50 [13]: 94 µg

CN1CC2c3cccc(=O)n3CC3C2[C@H](CO)CC31 (some centres undefined)
Ki [14]: 0.0013 µM | IC50 [15]: 0.0039 µM

C[C@@H]1CC[C@H]2[C@H](C(=O)c3c(O)c([C@@]4(O)CC[C@@H](O)[C@H]5O[C@H]54)cn(O)c3=O)[C@H](C)C=C[C@@H]2C1
IC50 (Acetylcholinesterase [16]): 39 µM

CCCCCCCCCCCCCCCCc1cc[n+](C)cc1C(=O)[O-]
IC50 (Acetylcholinesterase [1]): 2600 µM

C[C@@H]1CC2N(C)CC3c4cccc(=O)n4CC2(O)C31 (some centres undefined)
Ki [14]: 0.088 µM | IC50 [15]: 0.26 µM

c1cc2c[n+](c1)CCCCCCCCCCCCCc1ccc[n+](c1)CCCCCCCCCCCCC2
IC50 [17]: 72.3 µM | IC50 [18]: 162 µM | IC50 [19]: 193 µM

c1cc2c[n+](c1)CCCCCCCCCCCCCCc1ccc[n+](c1)CCCCCCCCCCCCC2
IC50 [17]: 175 µM | IC50 [18]: 279 µM | IC50 [19]: 338 µM

C1=C[C@H](c2cccnc2)NCC1
Ki [20]: 0.136 µM | EC50 [21]: 0.31 µM | Imax [22]: 102%

O=C(O)C[C@@H]1[C@@H](C(=O)O)NC[C@@H]1c1ccc(C(=O)O)[nH]c1=O
LD [3]: 7 mg/kg | LD [4]: 7 mg/kg | LD [5]: 7 mg/kg

O=C(O)C[C@@H]1[C@@H](C(=O)O)NC[C@@H]1c1ccc(=O)[nH]c1C(=O)O
LD [3]: 8 mg/kg | LD [4]: 8 mg/kg | LD [5]: 8 mg/kg

Cc1cc([C@@H]2CCCN2C)on1
Emax (Rattus norvegicus): 91%

c1cc2c[n+](c1)CCCCCCCCCCCCCCc1ccc[n+](c1)CCCCCCCCCCCCCC2
IC50 [17]: 194 µM | IC50 [18]: 470 µM | IC50 [19]: 612 µM

c1cncc(-c2cc(-c3cccnc3-c3cccnc3)ccn2)c1
LD50 [13]: > 240 µg

O=c1cccc2n1C[C@@H]1CNC[C@H]2C1 [CYTISINICLINE]
Ki [23]: 1.7 µM | Ki [14]: 0.00028 µM

CCCCCCCCCCCCCCCCc1c(C(=O)[O-])ccc[n+]1C
IC50 (Acetylcholinesterase [1]): 2100 µM

c1cc2c[n+](c1)CCCCCCCCCCCCCc1ccc[n+](c1)CCCCCCCCCCCC2
IC50 [17]: 42.3 µM | IC50 [18]: 111 µM | IC50 [19]: 149 µM

CO[C@]1(c2cn(O)c(=O)c(C(=O)[C@H]3[C@@H]4CC[C@@H](C)C[C@H]4C=C[C@H]3C)c2O)CC[C@@H](O)[C@H]2O[C@H]21
IC50 (Acetylcholinesterase [16]): 0.81 µM

C[C@@H]1CC2NCC3c4cccc(=O)n4CC2C31 (some centres undefined)
Ki [14]: 0.0016 µM | IC50 [15]: 0.0048 µM

c1cc2c[n+](c1)CCCCCCCCCCCCCCc1ccc[n+](c1)CCCCCCCCCCCC2
IC50 [17]: 79 µM | IC50 [18]: 233 µM | IC50 [19]: 282 µM

c1cncc([C@H]2CCCCN2)c1
Ki [24]: 3.7 µM | LD50 [25]: 11 mg/kg

c1cc2c[n+](c1)CCCCCCCCCCCCc1ccc[n+](c1)CCCCCCCCCCCC2
IC50 [17]: 36.2 µM | IC50 [18]: 94.6 µM | IC50 [19]: 98.8 µM

O=C(O)c1ccccn1
inhibition [26]: 83% | inhibition [27]: 55%

C1=C[C@@H](c2cccnc2)NCC1
Ki [20]: 0.108 µM | EC50 [21]: 1.01 µM | Imax [22]: 78.7%

Clc1ccc(C2CC3CCC2N3)cn1 (stereo in doubt; (-)) [EPIBATIDINE]
IC50 [28]: 0.00024 µM

C[C@@H]1CC[C@H]2[C@H](C(=O)c3c4c(cn(O)c3=O)[C@@]3(O)CC[C@H](O)[C@H](O4)[C@@H]3O)[C@H](C)C=C[C@@H]2C1
IC50 (Acetylcholinesterase [16]): 47 µM

C[N+](C)(C)CCOC(N)=O
Kapp [7]: 22 µM | Kapp [8]: 0.0049 µM
